According to patent publication US11944605B2, “Rapamycin analogs and uses thereof” (Janssen Pharmaceutica NV, priority 2018, dated 2024):
“Also recorded” adds a separate entry of the source.

Legend:
Type in all cases: cell-based
[1] = system: mTORC1 pathway (pS6K1 T389) in PC3 cells; assay: Western blot, mTORC1 pathway (pS6K1) in PC3 cells; details: PC3 cells, 24 hours
Description: (§1) Western Blot Based pS6K1 and pAKT Assay at 24 and 48 Hour Timepoints
(§2) 1. Seed six well plate with 500,000 PC3 cells per well and incubate for 20˜24 hour.
(§3) 2. Add compounds into the cell plate. Incubate for 24 to 48 hours.
(§4) 4. Plate is placed on ice and the media is removed via aspiration. The wells are washed with 1 mL of 1× PBS and then fully aspirated.
(§5) 5. 110 μL of 1% Triton Lysis Buffer is added and each well is scraped vigorously.
(§6) 6. Cell homogenates are transferred to 1.5 mL eppendorf tubes on ice and spun down at 4° C. for 10 minutes at 10,000 rpm.
(§7) 9. The membranes were washed 3× with TBS-T with a 5 minute incubation between each wash then incubated with secondary antibody (LiCor IRDye 800 Donkey Anti Rabbit) for at least 30 minutes.
(§8) 10. The membranes were washed 3× with TBS-T with a 5 minute incubation between each wash.
(§9) 11. The gels were then incubated for 5 minutes with PBS at room temperature then imaged using a Li-Cor.
(§10) The methods employed were substantially similar to those described above. Compounds were evaluated in PC3 cells, Jurkat cells, wild-type mouse embryotic fibroblast (MEF) cells, tuberous sclerosis 2 (TSC2) negative (TSC −/−) MEF cells, and tuberous sclerosis 2 (TSC2) positive (TSC +/+) MEF cells. Cells were incubated with compounds of the present invention for various time periods (e.g., 5 minutes, 15 minutes, 30 minutes, 90 minutes, 24 hours, or 48 hours), and evaluated according to known methodologies, such as those herein described.

[2] = system: mTORC1 over mTORC2; assay: mTORC1 selectivity over mTORC2 at 24 hrs (Western blot based pS6K1 and pAKT assay); details: 24 hrs
Description: as §1, §2, §3, §4, §5, §6, §7, §8, §9
“N/A” stands for “not assayed.”

[3] = system: mTORC2 pathway (Akt phosphorylation) in PC3 cells; assay: Western blot, mTORC2 pathway (pAkt) in PC3 cells; details: 24 hours
Description: as §1, §2, §3, §4, §5, §6, §7, §8, §9, §10

[4] = system: pAKT (p-Akt 1/2/3 (Ser473)) in MCF-7 cells; assay: AlphaLISA Ultra pAKT Assay; details: Homo sapiens, 1.5 h; MCF7 cells, 90 min
Description: AlphaLISA Ultra pAKT Assay
1. MCF-7 cells in Corning 3701 plate and incubate for 20˜24 hour.
16,000˜20,000 cells will be seeded in 36 μL medium per well.
2. Change the culture medium with fresh medium and incubate for another 90 minutes.
3. […]
4. Aspirate […] by HAMILTON, 10 μL rest per well.
5. Add 10 μL 2× lysis buffer using HAMILTON; total volume in wells is 20 μL. Allow cells to shake for 30 min. Cover plate by plastic foil and store plate at −80° C. up to analysis.
6. Thaw cell lysate at RT and transfer 10 ul lysate to assay plate (Optiplate-384).
7. Add 5 μL acceptor beads into assay plate and incubation for 2 hours
8. Add 5 μL donor beads and incubation for 2 hours
9. Count the plate by EnSpire Multimode Plate Reader

[5] = system: pS6K1 (p-p70 S6 Kinase (Thr389)) in MCF-7 cells; assay: AlphaLISA Ultra pS6K1 Assay; details: Homo sapiens, 1.5 h; MCF7 cells, 90 min
Method in brief: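 AlphaLISA Ultra read-out (acceptor beads 2 h, then donor beads 2 h) on thawed lysates of MCF-7 cells. Cells had 20–24 h after seeding and a 2 h medium change, then 90 min of compound exposure at 0.5% final DMSO, with lysates stored at −80 °C.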

Row | IC50 [4] | IC50 [5] | Structure (SMILES) | inhibition of the mTORC1 pathway [1] | mTORC1 selective @ 24 hrs [2] | inhibition of mTORC2 (Akt phosphorylation) [3]
1 |  | 1 to 10 nM | CO[C@@H]1C[C@H](C[C@@H](C)[C@@H]2CC(=O)[C@H](C)/C=C(\C)[C@@H](O)[C@@H](OC)C(=O)[C@H](C)C[C@H](C)/C=C/C=C/C=C(\C)[C@@H](OCCCC(=O)N(C)C)C[C@@H]3CC[C@@H](C)[C@@](O)(O3)C(=O)C(=O)N3CCCC[C@H]3C(=O)O2)CC[C@H]1OCCO [I-62, 4-[[(23E, 25E,27E,28E,35R,36S,37R,38R,40S,42S,44S,45S,46R,47R,57R)-46,57-dihydroxy-45-[(1R)-2-[(1S, 3R,4R)-4-(2-hydroxyethoxy)-3-methoxy-cyclohexyl]-1-methyl-ethyl]-47-methoxy-35, 36,37,38,48,49-hexamethyl-50,51,52,53,54-pentaoxo-69,70-dioxa-58-azatricyclohexatriaconta-23, 25,27(48),28(49)-tetraen-44-yl]oxy]-N,N-dimethyl-butanamide] | strong inhibition | YES | do not inhibit
2 |  | 0.1 to 1 nM | CO[C@@H]1CC(C[C@@H](C)C2CC(=O)[C@H](C)/C=C(\C)[C@@H](O)[C@@H](OC)C(=O)[C@H](C)C[C@H](C)/C=C/C=C/C=C(\C)[C@@H](OCCOCC(F)(F)F)C[C@@H]3CC[C@@H](C)[C@@](O)(O3)C(=O)C(=O)N3CCCC[C@H]3C(=O)O2)CC[C@H]1OCCO (stereo partly drawn) [I-71, (21E,23E,25E,26E,33R,34S,35R,36R,38S,40S,42S,43S,44R,45R,54R)-44, 54-dihydroxy-43-[(1R)-2-[(1S,3R,4R)-4-(2-hydroxyethoxy)-3-methoxy-cyclohexyl]-1-methyl-ethyl]-45-methoxy-33, 34,35,36,46,47-hexamethyl-42-[2-(2,2,2-trifluoroethoxy)ethoxy]-65,66-dioxa-56-azatricyclohexatriaconta-21,23,25(46),26(47)-tetraene-48, 49,50,51,52-pentone] | strong inhibition | YES | do not inhibit
3 |  | 0.1 to 1 nM | CO[C@@H]1C[C@H](C[C@@H](C)[C@@H]2CC(=O)[C@H](C)/C=C(\C)[C@@H](O)[C@@H](OC)C(=O)[C@H](C)C[C@H](C)/C=C/C=C/C=C(\C)C(OCCOCCOCCOCCOCCOCCOCCOCCOCCOCCOCCO)C[C@@H]3CC[C@@H](C)[C@@](O)(O3)C(=O)C(=O)N3CCCC[C@H]3C(=O)O2)CC[C@H]1O (stereo partly drawn) [I-96, (21E,23E,25E,26E,50R,51S,52R,53R,55S,57S,60S,61R,62R,71R)-61, 71-dihydroxy-59-[2-[2-[2-[2-[2-[2-[2-[2-[2-[2-(2-hydroxyethoxy)ethoxy]ethoxy]ethoxy]ethoxy]ethoxy]ethoxy]ethoxy]ethoxy]ethoxy]ethoxy]-60-[(1R)-2-[(1S,3R,4R)-4-hydroxy-3-methoxy-cyclohexyl]-1-methyl-ethyl]-62-methoxy-50, 51,52,53,63,64-hexamethyl-82,83-dioxa-72-azatricyclohexatriaconta-21, 23,25(63),26(64)-tetraene-65,66,67,68,69-pentone] | strong inhibition | YES | do not inhibit
4 |  | 0.1 to 1 nM | CO[C@@H]1C[C@H](C[C@@H](C)[C@@H]2CC(=O)[C@H](C)/C=C(\C)[C@@H](O)[C@@H](OC)C(=O)[C@H](C)C[C@H](C)/C=C/C=C/C=C(\C)C(OCCOCCOCCOCCOCCOCCOCCO)C[C@@H]3CC[C@@H](C)[C@@](O)(O3)C(=O)C(=O)N3CCCC[C@H]3C(=O)O2)CC[C@H]1OCCO (stereo partly drawn) [I-99, (21E,23E,25E,26E,44R,45S,46R,47R,49S,51S,54S,55R,56R,65R)-55, 65-dihydroxy-53-[2-[2-[2-[2-[2-[2-(2-hydroxyethoxy)ethoxy]ethoxy]ethoxy]ethoxy]ethoxy]ethoxy]-54-[(1R)-2-[(1S, 3R,4R)-4-(2-hydroxyethoxy)-3-methoxy-cyclohexyl]-1-methyl-ethyl]-56-methoxy-44, 45,46,47,57,58-hexamethyl-76,77-dioxa-66-azatricyclohexatriaconta-21, 23,25(57),26(58)-tetraene-59,60,61,62,63-pentone] | appreciable concentration dependent inhibition; also recorded: moderate concentration dependent inhibition | YES | do not inhibit
5 |  | 0.1 to 1 nM | CO[C@@H]1C[C@H](C[C@@H](C)[C@@H]2CC(=O)[C@H](C)/C=C(\C)[C@@H](O)[C@@H](OC)C(=O)[C@H](C)C[C@H](C)/C=C/C=C/C=C(\C)C(OCC(COCCC#N)(COCCC#N)COCCC#N)C[C@@H]3CC[C@@H](C)[C@@](O)(O3)C(=O)C(=O)N3CCCC[C@H]3C(=O)O2)CC[C@H]1O (stereo partly drawn) [I-101, 3-[2,2-bis(2-cyanoethoxymethyl)-3-[[(21E, 23E,25E,26E,41R,42S,43R,44R,46S,48S,51S,52R,53R,62R)-52,62-dihydroxy-51-[(1R)-2-[(1S, 3R,4R)-4-hydroxy-3-methoxy-cyclohexyl]-1-methyl-ethyl]-53-methoxy-41, 42,43,44,54,55-hexamethyl-56,57,58,59,60-pentaoxo-76,77-dioxa-67-azatricyclohexatriaconta-21, 23,25(54),26(55)-tetraen-50-yl]oxy]propoxy]propanenitrile] | strong inhibition; also recorded: appreciable concentration dependent inhibition; also recorded: moderate concentration dependent inhibition | YES | do not inhibit

The next lines start with the compound.

Row | Structure (SMILES) | IC50 [4] | IC50 [5] | inhibition of the mTORC1 pathway [1] | mTORC1 selective @ 24 hrs [2] | inhibition of mTORC2 (Akt phosphorylation) [3]
6 | CO[C@@H]1C[C@H](C[C@@H](C)[C@@H]2CC(=O)[C@H](C)/C=C(\C)[C@@H](O)[C@@H](OC)C(=O)[C@H](C)C[C@H](C)/C=C/C=C/C=C(\C)[C@@H](OCC(CO)CO)C[C@@H]3CC[C@@H](C)[C@@](O)(O3)C(=O)C(=O)N3CCCC[C@H]3C(=O)O2)CC[C@H]1O [I-5] |  |  | strong inhibition | YES | do not inhibit
7 | CO[C@@H]1C[C@H](C[C@@H](C)[C@@H]2CC(=O)[C@H](C)/C=C(\C)[C@@H](O)[C@@H](OC)C(=O)[C@H](C)C[C@H](C)/C=C/C=C/C=C(\C)C(OCC3COCCOCCOCCO3)C[C@@H]3CC[C@@H](C)[C@@](O)(O3)C(=O)C(=O)N3CCCC[C@H]3C(=O)O2)CC[C@H]1O (stereo partly drawn) [I-10] | ≥ 100 nM | < 0.1 nM |  | YES | 
8 | CO[C@@H]1C[C@H](C[C@@H](C)[C@@H]2CC(=O)[C@H](C)/C=C(\C)[C@@H](O)[C@@H](OC)C(=O)[C@H](C)C[C@H](C)/C=C/C=C/C=C(\C)C(OCCOCCOCCOCCO)C[C@@H]3CC[C@@H](C)[C@@](O)(O3)C(=O)C(=O)N3CCCC[C@H]3C(=O)O2)CC[C@H]1OCCO (stereo partly drawn) [I-22, (21E,23E,25E,26E,38R,39S,40R,41R,42S,45S,47S,49R,50R,59R)-49, 59-dihydroxy-46-[2-[2-[2-(2-hydroxyethoxy)ethoxy]ethoxy]ethoxy]-47-[(1R)-2-[(1S,2R, 3R)-3-(2-hydroxyethoxy)-2-methoxy-cyclohexyl]-1-methyl-ethyl]-50-methoxy-38,39,40,41,51,52-hexamethyl-70, 71-dioxa-60-azatricyclohexatriaconta-21,23,25(51),26(52)-tetraene-53, 54,55,56,57-pentone] | ≥ 100 nM | 0.1 to 1 nM |  | YES | 
9 | CO[C@H]1C[C@@H]2CC[C@@H](C)[C@@](O)(O2)C(=O)C(=O)N2CCCC[C@H]2C(=O)O[C@H]([C@H](C)C[C@@H]2CC[C@@H](OP(C)(C)=O)[C@H](OC)C2)CC(=O)[C@H](C)/C=C(\C)[C@@H](O)[C@@H](OC)C(=O)[C@H](C)C[C@H](C)/C=C/C=C/C=C/1C [ridaforolimus, reference compound] |  |  | strong inhibition |  | dose dependent inhibition
10 | CO[C@H]1C[C@@H]2CC[C@@H](C)[C@@](O)(O2)C(=O)C(=O)N2CCCC[C@H]2C(=O)O[C@H]([C@H](C)C[C@@H]2CC[C@@H](OC(=O)C(C)(CO)CO)[C@H](OC)C2)CC(=O)[C@H](C)/C=C(\C)[C@@H](O)[C@@H](OC)C(=O)[C@H](C)C[C@H](C)/C=C/C=C/C=C/1C [temsirolimus, reference compound] |  |  | strong inhibition |  | dose dependent inhibition
